Columns and labels:
Assay in all cases: relative viability (nuclei count vs DMSO), 5 days (fraction); higher = more cells survive
[1] = system: EMC-BAC-2
Procedure, shortened: (§1)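 Values are medians from duplicate plates. Each reflects relative viability, defined as the nuclei count of treated wells over that of vehicle wells. Lung cancer cell lines in 1536-well plates were pin-tool dosed one day after seeding with one drug alone or with a fixed anchor-drug dose plus five library-drug doses (not always all listed) in √10 steps, then fixed, stained and imaged at 4× after 5 days.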

[2] = system: LU99A
Procedure, shortened: as §1

[3] = system: SW 1573
Procedure, shortened: as §1

[4] = system: HCC-827
Procedure, shortened: as §1

[5] = system: PC-14
Procedure, shortened: as §1

[6] = system: LCLC-103H
Procedure, shortened: as §1

[7] = system: NCI-H2126
Procedure, shortened: as §1

[8] = system: NCI-H2342
Procedure, shortened: as §1

[9] = system: SK-LU-1
Procedure, shortened: as §1

[10] = system: NCI-H1666
Procedure, shortened: as §1

[11] = system: HCC-78
Procedure, shortened: as §1

[12] = system: LXF-289
Procedure, shortened: as §1

[13] = system: EPLC-272H
Procedure, shortened: as §1

[14] = system: ChaGo-K-1
Procedure, shortened: as §1

[15] = system: EKVX
Procedure, shortened: as §1

[16] = system: NCI-H322M
Procedure, shortened: as §1

[17] = system: LK-2
Procedure, shortened: as §1

[18] = system: NCI-H1975
Procedure, shortened: as §1

[19] = system: NCI-H1563
Procedure, shortened: as §1

[20] = system: NCI-H23
Procedure, shortened: as §1

[21] = system: RERF-LC-KJ
Procedure, shortened: as §1

[22] = system: NCI-H2405
Procedure, shortened: as §1

[23] = system: SW 900
Procedure, shortened: as §1

## O=c1cc(-c2cccc3c2Sc2ccccc2S3)oc(N2CCOCC2)c1 + Cc1nc(Nc2ncc(C(=O)Nc3c(C)cccc3Cl)s2)cc(N2CCN(CCO)CC2)n1 [Dasatinib] (partner 0.075 µM)
[1]; first compound 0.08 µM
  relative viability: 0.252
[1]; first compound 0.253 µM
  relative viability: 0.368
[1]; first compound 0.8 µM
  relative viability: 0.306
[1]; first compound 2.53 µM
  relative viability: 0.303
[1]; first compound 8 µM
  relative viability: 0.399
[2]; first compound 0.08 µM
  relative viability: 0.759
[2]; first compound 0.253 µM
  relative viability: 0.61
[2]; first compound 0.8 µM
  relative viability: 0.587
[2]; first compound 2.53 µM
  relative viability: 0.754
[2]; first compound 8 µM
  relative viability: 0.631
[3]; first compound 0.08 µM
  relative viability: 0.417
[3]; first compound 0.253 µM
  relative viability: 0.66
[3]; first compound 0.8 µM
  relative viability: 0.706
[3]; first compound 2.53 µM
  relative viability: 0.436
[3]; first compound 8 µM
  relative viability: 0.461
[4]; first compound 0.08 µM
  relative viability: 0.285
[4]; first compound 0.253 µM
  relative viability: 0.297
[4]; first compound 0.8 µM
  relative viability: 0.37
[4]; first compound 2.53 µM
  relative viability: 0.276
[4]; first compound 8 µM
  relative viability: 0.348
[5]; first compound 0.08 µM
  relative viability: 0.225
[5]; first compound 0.253 µM
  relative viability: 0.217
[5]; first compound 0.8 µM
  relative viability: 0.225
[5]; first compound 2.53 µM
  relative viability: 0.175
[5]; first compound 8 µM
  relative viability: 0.253
[6]; first compound 0.08 µM
  relative viability: 0.416
[6]; first compound 0.253 µM
  relative viability: 0.503
[6]; first compound 0.8 µM
  relative viability: 0.528
[6]; first compound 2.53 µM
  relative viability: 0.439
[6]; first compound 8 µM
  relative viability: 0.551
[7]; first compound 0.08 µM
  relative viability: 0.59
[7]; first compound 0.253 µM
  relative viability: 0.456
[7]; first compound 0.8 µM
  relative viability: 0.43
[7]; first compound 2.53 µM
  relative viability: 0.534
[7]; first compound 8 µM
  relative viability: 0.495
[8]; first compound 0.08 µM
  relative viability: 0.312
[8]; first compound 0.253 µM
  relative viability: 0.309
[8]; first compound 0.8 µM
  relative viability: 0.304
[8]; first compound 2.53 µM
  relative viability: 0.262
[8]; first compound 8 µM
  relative viability: 0.336
[9]; first compound 0.08 µM
  relative viability: 0.156
[9]; first compound 0.253 µM
  relative viability: 0.17
[9]; first compound 0.8 µM
  relative viability: 0.205
[9]; first compound 2.53 µM
  relative viability: 0.18
[9]; first compound 8 µM
  relative viability: 0.182
[10]; first compound 0.08 µM
  relative viability: 0.787
[10]; first compound 0.253 µM
  relative viability: 0.781
[10]; first compound 0.8 µM
  relative viability: 0.851
[10]; first compound 2.53 µM
  relative viability: 0.768
[10]; first compound 8 µM
  relative viability: 0.789
[11]; first compound 0.08 µM
  relative viability: 0.395
[11]; first compound 0.253 µM
  relative viability: 0.553
[11]; first compound 0.8 µM
  relative viability: 0.284
[11]; first compound 2.53 µM
  relative viability: 0.329
[11]; first compound 8 µM
  relative viability: 0.389
[12]; first compound 0.08 µM
  relative viability: 0.219
[12]; first compound 0.253 µM
  relative viability: 0.21
[12]; first compound 0.8 µM
  relative viability: 0.226
[12]; first compound 2.53 µM
  relative viability: 0.239
[12]; first compound 8 µM
  relative viability: 0.224
[13]; first compound 0.08 µM
  relative viability: 0.331
[13]; first compound 0.253 µM
  relative viability: 0.397
[13]; first compound 0.8 µM
  relative viability: 0.399
[13]; first compound 2.53 µM
  relative viability: 0.306
[13]; first compound 8 µM
  relative viability: 0.347
[14]; first compound 0.08 µM
  relative viability: 0.499
[14]; first compound 0.253 µM
  relative viability: 0.568
[14]; first compound 0.8 µM
  relative viability: 0.585
[14]; first compound 2.53 µM
  relative viability: 0.454
[14]; first compound 8 µM
  relative viability: 0.674
[15]; first compound 0.08 µM
  relative viability: 0.605
[15]; first compound 0.253 µM
  relative viability: 0.517
[15]; first compound 0.8 µM
  relative viability: 0.315
[15]; first compound 2.53 µM
  relative viability: 0.501
[15]; first compound 8 µM
  relative viability: 0.355
[16]; first compound 0.08 µM
  relative viability: 0.251
[16]; first compound 0.253 µM
  relative viability: 0.262
[16]; first compound 0.8 µM
  relative viability: 0.249
[16]; first compound 2.53 µM
  relative viability: 0.253
[16]; first compound 8 µM
  relative viability: 0.279
[17]; first compound 0.08 µM
  relative viability: 0.306
[17]; first compound 0.253 µM
  relative viability: 0.252
[17]; first compound 0.8 µM
  relative viability: 0.267
[17]; first compound 2.53 µM
  relative viability: 0.145
[17]; first compound 8 µM
  relative viability: 0.263
[18]; first compound 0.08 µM
  relative viability: 0.355
[18]; first compound 0.253 µM
  relative viability: 0.35
[18]; first compound 0.8 µM
  relative viability: 0.219
[18]; first compound 2.53 µM
  relative viability: 0.239
[18]; first compound 8 µM
  relative viability: 0.326
[19]; first compound 0.08 µM
  relative viability: 0.473
[19]; first compound 0.253 µM
  relative viability: 0.454
[19]; first compound 0.8 µM
  relative viability: 0.437
[19]; first compound 2.53 µM
  relative viability: 0.366
[19]; first compound 8 µM
  relative viability: 0.467
[20]; first compound 0.08 µM
  relative viability: 0.721
[20]; first compound 0.253 µM
  relative viability: 0.716
[20]; first compound 0.8 µM
  relative viability: 0.783
[20]; first compound 2.53 µM
  relative viability: 0.702
[20]; first compound 8 µM
  relative viability: 0.86
[21]; first compound 0.08 µM
  relative viability: 0.685
[21]; first compound 0.253 µM
  relative viability: 0.975
[21]; first compound 0.8 µM
  relative viability: 0.918
[21]; first compound 2.53 µM
  relative viability: 0.758
[21]; first compound 8 µM
  relative viability: 0.74
[22]; first compound 0.08 µM
  relative viability: 0.183
[22]; first compound 0.253 µM
  relative viability: 0.194
[22]; first compound 0.8 µM
  relative viability: 0.192
[22]; first compound 2.53 µM
  relative viability: 0.179
[22]; first compound 8 µM
  relative viability: 0.209
[23]; first compound 0.08 µM
  relative viability: 0.503
[23]; first compound 0.253 µM
  relative viability: 0.919
[23]; first compound 0.8 µM
  relative viability: 0.352
[23]; first compound 2.53 µM
  relative viability: 0.44
[23]; first compound 8 µM
  relative viability: 0.538

Reference: the supplement of paper PMC10307832
